We go through nine compounds from patent publication US7563895B2, “Quinoxaline compounds” (Janssen Pharmaceutica, N.V., priority 2003, dated 2009).

Experiment [1] deals with T1, CCK2 receptor (Homo sapiens, UniProt P32239).
T1 construct: Membranes were prepared from the HEKZFP cells after induction; endogenous in cells; host or cells: HEKZFP cells (T-REx-293 with tet-inducible ZFP-VP16 specific for the CCK2R gene), doxycycline-induced; membrane preparation
T1 sequence (P32239 1-447): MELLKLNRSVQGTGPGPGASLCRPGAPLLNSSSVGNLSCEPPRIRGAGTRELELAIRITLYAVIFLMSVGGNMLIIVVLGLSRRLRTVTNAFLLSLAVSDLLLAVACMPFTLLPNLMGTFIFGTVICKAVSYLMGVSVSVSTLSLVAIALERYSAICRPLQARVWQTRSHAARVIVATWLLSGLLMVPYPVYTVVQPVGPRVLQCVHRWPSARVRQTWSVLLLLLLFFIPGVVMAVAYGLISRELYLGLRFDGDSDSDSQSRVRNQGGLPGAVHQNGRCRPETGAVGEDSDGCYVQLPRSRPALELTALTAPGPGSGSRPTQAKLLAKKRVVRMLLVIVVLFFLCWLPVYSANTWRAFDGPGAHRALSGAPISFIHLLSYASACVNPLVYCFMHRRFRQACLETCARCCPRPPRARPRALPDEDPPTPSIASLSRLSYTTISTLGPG
As to the kind of experiment: CCK2 receptor radioligand binding assay ([125I]-BH-CCK-8S, HEKZFP cell membranes). The conditions noted are these: competition with [125I]-BH-CCK-8S, membranes of induced HEKZFP cells, 60 min at 21±3° C., Cheng-Prusoff. On the procedure:
Zinc Finger Proteins (ZFP) specific for the CCK2R gene were identified by Sangamo Biosciences. The ZFP domain was fused with the herpes simplex virus VP16 activation domain, and the fusion protein was subsequently cloned into the pcDNA3 mammalian expression vector (Invitrogen, San Diego, Calif.). […] After 2 weeks of selection in culture medium containing […] Zeocin (Invitrogen), sixty drug-resistant stable clones were isolated and analyzed for ZFP expression as well as CCK2R induction upon addition of doxycycline to the culture medium.
HEKZFP cells were grown in DMEM supplemented with L-glutamine (2 mM), penicillin (50 units/mL) and streptomycin (50 μg/mL) and 10% FBS (v/v).
Membranes were prepared from the HEKZFP cells after induction. […] The thawed pellets were homogenized using a Polytron PT-10 (7×1 s). The homogenates were centrifuged for 5 min at 1500 rpm (600×g), and the resulting pellets were discarded. The supernatants were re-centrifuged in order to collect the receptor-membrane pellets (25 min 15,000 rpm; 39,800×g), which were re-suspended in buffer A.
The assay preparation was incubated for 1 h at 21±3° C., and then the assay was terminated by rapid filtration of the preparation under reduced pressure. The loaded filters were washed three times using undiluted PBS (100 μL), and then 100 μL of scintillation fluid was added to the filter plate. Bound radioactivity was determined using a Topcount (Packard BioScience, Meriden, Conn.) with a count time of 1 min. […] To validate the radioligand concentration and incubation time for the assay, saturation and kinetic binding studies were also conducted (see M. F. Morton, The Pharmacological Characterization of Cholecystokinin Receptors in the Human Gastrointestinal Tract. PhD Thesis, University of London, 2000). […] The assay was then terminated according to the procedure outlined above.
The pKi values were determined using the equation of Y.-C.
To circumvent problems associated with computer-assisted data analysis of compounds with low affinity, the data obtained in the current study were weighed according to a method described by Morton. In brief, 100% and 0% specific binding were defined independently using total binding and binding obtained in the presence of a high concentration of the reference antagonist, 2-NAP.

In experiment [2] the target is T2, CCK2 receptor (Cavia porcellus, UniProt H0VZC5).
T2 construct: strips of muscle were dissected and suspended in isolated tissue organ baths; from tissue; host or cells: guinea-pig gastric corpeal muscle strips
T2 sequence (H0VZC5 1-426): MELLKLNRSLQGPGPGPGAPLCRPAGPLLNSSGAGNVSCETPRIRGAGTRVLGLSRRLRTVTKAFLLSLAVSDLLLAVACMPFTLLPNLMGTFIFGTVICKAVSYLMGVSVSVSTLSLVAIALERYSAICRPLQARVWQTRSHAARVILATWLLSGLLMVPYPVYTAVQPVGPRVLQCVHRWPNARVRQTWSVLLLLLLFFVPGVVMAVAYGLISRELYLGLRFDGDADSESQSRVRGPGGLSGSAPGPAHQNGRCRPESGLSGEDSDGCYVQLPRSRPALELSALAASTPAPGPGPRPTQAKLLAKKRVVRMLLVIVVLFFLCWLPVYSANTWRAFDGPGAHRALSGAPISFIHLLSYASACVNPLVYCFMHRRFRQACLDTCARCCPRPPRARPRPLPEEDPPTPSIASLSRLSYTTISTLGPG
Description: Guinea-pig gastric corpeal muscle assay (pentagastrin-induced contraction of isolated muscle strips). The conditions noted are these: pentagastrin concentration-response curves. The method, then:
Guinea-Pig Gastric Corpeal Muscle Assay
CCK2 receptor-mediated muscle contraction was measured in an isolated muscle-strip assay of guinea-pig gastric corpeal muscle according to the methods described by Roberts et al. (S. P. Roberts, E. A. Harper, G. F. Watt, V. P. Gerskowitch, R. A. Hull, N. P. Shankley, and J. W. Black, Br. J. Pharmacol., 1996, 118(7): 1779-1789). In brief, strips of muscle were dissected and suspended in isolated tissue organ baths for isotonic muscle contraction recording. The baths, containing Krebs-Henseleit solution, were maintained at 24° C. and gassed continuously with 95% O2 and 5% CO2. CCK1 receptors known to be present in this assay were blocked using a selective concentration of a suitable CCK1 receptor antagonist (e.g. 2-NAP). The effectiveness of the test compounds was assessed by measuring their effect on contractile concentration-response curves obtained using a well-characterized surrogate hormone gastrin (pentagastrin).

A word on the Ki: it is a measure of affinity in units of concentration, obtained from inhibition or displacement. A low value points to a stronger hold on the target. On to `C[C@@H](NC(=O)c1ccc(Br)cc1NS(=O)(=O)c1cccc2nccnc12)c1ccc(F)cc1F` [Example 2, (R)-4-Bromo-N-[1-(2,4-difluoro-phenyl)-ethyl]-2-(quinoxaline-5-sulfonylamino)-benzamide], for which, at CCK2 receptor [1], the Ki was 20 nM. Further, the “behaviour in the assay (mode of antagonism)” value at CCK2 receptor [2] is listed as “competitive antagonist”. Also, on CCK2 receptor [2] (CCK1 receptors blocked, 24° C., read-out: pKB value (converted)), the Kb is 1.58 nM.
In turn, `C[C@@H](NC(=O)c1ccc(Cl)cc1NS(=O)(=O)c1cccc2nccnc12)c1ccc(Cl)cc1Cl` [Example 43, (R)-4-Chloro-N-[1-(2,4-dichloro-phenyl)-ethyl]-2-(quinoxaline-5-sulfonylamino)-benzamide] had a Ki at CCK2 receptor [1] of 10 nM.
On the same count and under the same terms, in the case of `C[C@@H](NC(=O)c1ccc(C(F)(F)F)cc1NS(=O)(=O)c1cccc2nccnc12)c1ccc(F)cc1F` [Example 36, (R)—N-[1-(2,4-Difluorophenyl)ethyl]-2-(quinoxaline-5-sulfonylamino)-4-trifluoromethylbenzamide] it was 25.1 nM.
On the same count and under the same terms, in the case of `C[C@@H]1COC[C@H](C)N1C(=O)c1ccc(Br)cc1NS(=O)(=O)c1cccc2nccnc12` [Example 27, meso-Quinoxaline-5-sulfonic acid [2-(3,5-dimethylmorpholine-4-carbonyl)-5-bromophenyl]-amide] it was 316 nM; in that of `O=C(N[C@H](CF)c1ccc(F)cc1F)c1ccc(Cl)cc1NS(=O)(=O)c1cccc2nccnc12` [Example 78, (S)-4-Chloro-N-[1-(2,4-difluoro-phenyl)-2-fluoro-ethyl]-2-(quinoxaline-5-sulfonylamino)-benzamide], 39.8 nM.
Broadly, the pKi is the Ki on a negative log10 scale, so that one unit is a factor of ten. A low value points to a large Ki. The compound `O=C(c1ccc(I)cc1NS(=O)(=O)c1cccc2nccnc12)N1CCOCC1` [Example 6, Quinoxaline-5-sulfonic acid [5-iodo-2-(morpholine-4-carbonyl)-phenyl]-amide] yielded a pKi on CCK2 receptor [1] of 7.5.
Compound `O=C(c1ccc(I)cc1NS(=O)(=O)c1cccc2nccnc12)N1CCC(O)CC1` [Example 26, Quinoxaline-5-sulfonic acid [2-(4-hydroxy-piperidine-1-carbonyl)-5-iodo-phenyl]-amide] gave a Ki on CCK2 receptor [1] of 316 nM.
Turning to `O=C(c1ccc(Br)cc1NS(=O)(=O)c1cccc2nccnc12)N1CCCc2ccccc2C1` [Example 10, Quinoxaline-5-sulfonic acid [5-bromo-2-(1,3,4,5-tetrahydrobenzo[c]azepine-2-carbonyl)phenyl]-amide], the inhibitory constant (Ki) on CCK2 receptor [1] was 50.1 nM.
The same measure, in the same setting: in the case of `C[C@H](c1ccccc1)N(C)C(=O)c1ccc(I)cc1NS(=O)(=O)c1cccc2nccnc12` [Example 34, (R)-4-Iodo-N-methyl-N-(1-phenyl-ethyl)-2-(quinoxaline-5-sulfonylamino)-benzamide] it was 7.94 nM.
